Experimental data from patent US20220267352A1, “RAPAMYCIN ANALOGS AND USES THEREOF” (Anakuria Therapeutics, Inc., priority 2021, published 2022).

Legend:
Type in all cases: cell-based
[1] = system: p-p70 S6 Kinase (Thr389) in MCF-7 cells; test: AlphaLISA Ultra pS6K1 assay; settings: Homo sapiens, 1.5 h; MCF7 cells, 90 min
Method in brief: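 Phospho-S6K1 (Thr389) quantified by AlphaLISA Ultra read-out (2 h acceptor, then 2 h donor beads) in lysates of MCF-7 cells. Cells were plated 20–24 h before, refed 2 h, exposed to compounds for 90 min at 0.5% final DMSO, and lysates stored at −80 °C.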

[2] = system: pS6K1 T389 and pAkt S473 in PC3 cells; test: Western blot based pS6K1 and pAKT assay at 24 and 48 hour timepoints
Method: Example 57: Western Blot Based pS6K1 and pAKT Assay at 24 and 48 Hour Timepoints
Assay Protocol: • 1. Seed six well plate with 500,000 PC3 cells per well and incubate for 20˜24 hour. • 2. Add compounds into the cell plate. Incubate for 24 to 48 hours. • 4. Plate is placed on ice and the media is removed via aspiration. The wells are washed with 1 mL of 1x PBS and then fully aspirated. • 5. 110 μL of 1% Triton Lysis Buffer is added and each well is scraped vigorously. • 6. Cell homogenates are transferred to 1.5 mL eppendorf tubes on ice and spun down at 4° C. for 10 minutes at 10,000 rpm. • 7. Protein concentration of resulting cell lysates were quantified utilizing a Bradford assay and the samples run analyzed via Western blot on 4-12% Bis/Tris gels with 1×MES buffer. • 8. The gels were transferred onto membranes at 50V for 100 minutes, blocked with Odyssey Blocking buffer for 30 minutes then incubated overnight with primary antibody (pS6K1 T389 Rabbit or pAkt S473 Rabbit) overnight at 4° C. on a rotator. • 9. The membranes were washed 3× with TBS-T with a 5 minute incubation between each wash then incubated with secondary antibody (LiCor IRDye 800 Donkey Anti Rabbit) for at least 30 minutes. • 10. The membranes were washed 3× with TBS-T with a 5 minute incubation between each wash. • 11. The gels were then incubated for 5 minutes with PBS at room temperature then imaged using a Li-Cor.
Compounds that are not selective by comparing pS6K1 and pAKT IC50 by kinase assays are indicated by “NO” in the “mTORC1 selective @ 90 min” column of Table 4. […] Compounds that are not selective at the 24 hrs mark are indicated by “NO” in the “mTORC1 selective @ 24 hrs” column of Table 4. “N/A” stands for “not assayed” and “N/C” stands for “not calculated”.

[3] = system: p-Akt 1/2/3 (Ser473) in MCF-7 cells; test: AlphaLISA Ultra pAKT assay; settings: Homo sapiens, 1.5 h; MCF7 cells, 90 min
Method in brief: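 MCF-7 cells (16,000˜20,000 per well in 36 μL medium) were seeded in Corning 3701 plates for 20˜24 hour, refreshed with new medium for 90 minutes, then given 12 μL of 4× compound (0.5% final DMSO). Cells were lysed with 2× lysis buffer, and lysate was analyzed by AlphaLISA Ultra pAKT using acceptor and donor beads, read on an EnSpire reader.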

mTORC1 over mTORC2 = mTORC1 over mTORC2 selectivity by comparing pS6K1 and pAKT IC50; settings: by comparing pS6K1 and pAKT IC50, 90 min
Method in brief: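 MCF-7 cells were treated with compounds (0.5% final DMSO) for 90 minutes in one protocol and 2 hours in the other, then lysed. Phospho-signal in lysates was read by bead-based donor/acceptor proximity assay. pS6K1 and pAKT IC50 values were compared to judge mTORC1 over mTORC2 selectivity, at 90 min and at 24 hrs.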

IC50 [1] [nM]	IC50 [3] [nM]	Compound	mTORC1 selective @ 24 hrs [2]	mTORC1 selective @ 90 min (mTORC1 over mTORC2)
1 to 10	–	COCCOCCO[C@H]1C[C@@H]2CC[C@@H](C)[C@@](O)(O2)C(=O)C(=O)N2CCCC[C@H]2C(=O)O[C@H]([C@H](C)C[C@@H]2CC[C@@H](OP(C)(C)=O)[C@H](OC)C2)CC(=O)[C@H](C)/C=C(\C)[C@@H](OC)[C@@H](OC)C(=O)[C@H](C)C[C@H](C)/C=C/C=C/C=C/1C [I-34, (25E,27E,29E,30E,36R,37S,38R,39R,41S,43S,45S,46S,47R,48R,57R)-46-[(1R)-2-[(1S,3R,4R)-4-dimethylphosphoryloxy-3-methoxy-cyclohexyl]-1-methyl-ethyl]-57-hydroxy-47,48-dimethoxy-45-[2-(2-methoxyethoxy)ethoxy]-36,37,38,39,49,50-hexamethyl-66,67-dioxa-58-azatricyclohexatriaconta-25,27,29(49),30(50)-tetraene-51,52,53,54,55-pentone]	Yes	–
10 to 100	–	COCCS(=O)(=O)CCO[C@H]1C[C@@H]2CC[C@@H](C)[C@@](O)(O2)C(=O)C(=O)N2CCCC[C@H]2C(=O)O[C@H]([C@H](C)C[C@@H]2CC[C@@H](OC)[C@H](OC)C2)CC(=O)[C@H](C)/C=C(\C)[C@@H](OC)[C@@H](OC)C(=O)[C@H](C)C[C@H](C)/C=C/C=C/C=C/1C [I-43, (24E,26E,28E,29E,35R,36S,37R,38R,40S,42S,44S,45S,46R,47R,56R)-45-[(1R)-2-[(1S,3R,4R)-3,4-dimethoxycyclohexyl]-1-methyl-ethyl]-56-hydroxy-46,47-dimethoxy-44-[2-(2-methoxyethylsulfonyl)ethoxy]-35,36,37,38,48,49-hexamethyl-66,67-dioxa-57-azatricyclohexatriaconta-24,26,28(48),29(49)-tetraene-50,51,52,53,54-pentone]	Yes	–
10 to 100	–	CO[C@@H]1/C(C)=C/[C@@H](C)C(=O)C[C@@H]([C@H](C)C[C@@H]2CC[C@@H](O)[C@H](OC)C2)OC(=O)[C@@H]2CCCCN2C(=O)C(=O)[C@]2(O)O[C@@H](CC[C@H]2C)C[C@H](OCC2COCCO2)/C(C)=C/C=C/C=C/[C@@H](C)C[C@@H](C)C(=O)[C@@H]1OC (stereo partly drawn) [I-27, (25E,27E,29E,30E,33R,34S,35R,36R,38S,40S,42S,43S,45R,46R,55R)-42-(1,4-dioxan-2-ylmethoxy)-55-hydroxy-43-[(1R)-2-[(1S,3R,4R)-4-hydroxy-3-methoxy-cyclohexyl]-1-methyl-ethyl]-45,46-dimethoxy-33,34,35,36,47,48-hexamethyl-66,67-dioxa-56-azatricyclohexatriaconta-25,27,29(47),30(48)-tetraene-49,50,51,52,53-pentone]	Yes	–
≥ 1000	–	CO[C@@H]1/C(C)=C/[C@@H](C)C(=O)C[C@@H]([C@H](C)C[C@@H]2CC[C@@H](OC)[C@H](OC)C2)OC(=O)[C@@H]2CCCCN2C(=O)C(=O)[C@]2(O)O[C@@H](CC[C@H]2C)C[C@H](OCC2COCCO2)/C(C)=C/C=C/C=C/[C@@H](C)C[C@@H](C)C(=O)[C@@H]1OC (stereo partly drawn) [I-40, (26E,28E,30E,31E,34R,35S,36R,37R,39S,41S,43S,44S,46R,47R,56R)-44-[(1R)-2-[(1S,3R,4R)-3,4-dimethoxycyclohexyl]-1-methyl-ethyl]-43-(1,4-dioxan-2-ylmethoxy)-56-hydroxy-46,47-dimethoxy-34,35,36,37,48,49-hexamethyl-66,67-dioxa-57-azatricyclohexatriaconta-26,28,30(48),31(49)-tetraene-50,51,52,53,54-pentone]	Yes	–
–	–	CO[C@@H]1/C(C)=C/[C@@H](C)C(=O)C[C@@H]([C@H](C)C[C@@H]2CC[C@@H](OP(C)(C)=O)[C@H](OC)C2)OC(=O)[C@@H]2CCCCN2C(=O)C(=O)[C@]2(O)O[C@@H](CC[C@H]2C)C[C@H](OCCOC2CCOCC2)/C(C)=C/C=C/C=C/[C@@H](C)C[C@@H](C)C(=O)[C@@H]1OC [I-55, (1R,9S,12S,15R,16E,18R,19R,21R,23S,24E,26E,28E,30S,32S,35R)-12-[(1R)-2-[(1S,3R,4R)-4-dimethylphosphoryloxy-3-methoxy-cyclohexyl]-1-methyl-ethyl]-1-hydroxy-18,19-dimethoxy-15,17,21,23,29,35-hexamethyl-30-(2-tetrahydropyran-4-yloxyethoxy)-11,36-dioxa-4-azatricyclo[30.3.1.0^4,9]hexatriaconta-16,24,26,28-tetraene-2,3,10,14,20-pentone]	No	–
–	–	CO[C@@H]1C[C@H](C[C@@H](C)[C@@H]2CC(=O)[C@H](C)/C=C(\C)[C@@H](O)[C@@H](OC)C(=O)[C@H](C)C[C@H](C)/C=C/C=C/C=C(\C)[C@@H](OCCOC3COC3)C[C@@H]3CC[C@@H](C)[C@@](O)(O3)C(=O)C(=O)N3CCCC[C@H]3C(=O)O2)CC[C@H]1OC(=O)N(C)CCN1CCOCC1 [I-18, [(43S,45R,47R)-4-[(2R)-2-[(28E,30E,32E,33E,39R,40S,41R,42R,44S,46S,48S,49S,51R,52R,62R)-51,62-dihydroxy-52-methoxy-39,40,41,42,53,54-hexamethyl-48-[2-(oxetan-3-yloxy)ethoxy]-55,56,57,58,59-pentaoxo-76,77-dioxa-64-azatricyclohexatriaconta-28,30,32(53),33(54)-tetraen-49-yl]propyl]-47-methoxy-45-cyclohexyl] N-methyl-N-(2-morpholinoethyl)carbamate]	Yes	–
–	–	CO[C@@H]1C[C@H](C[C@@H](C)[C@@H]2CC(=O)[C@H](C)/C=C(\C)[C@@H](O)[C@@H](OC)C(=O)[C@H](C)C[C@H](C)/C=C/C=C/C=C(\C)[C@@H](OCc3cnccn3)C[C@@H]3CC[C@@H](C)[C@@](O)(O3)C(=O)C(=O)N3CCCC[C@H]3C(=O)O2)CC[C@H]1OCCO [I-59, (1R,9S,12S,15R,16E,18R,19R,21R,23S,24E,26E,28E,30S,32S,35R)-1,18-dihydroxy-12-[(1R)-2-[(1S,3R,4R)-4-(2-hydroxyethoxy)-3-methoxy-cyclohexyl]-1-methyl-ethyl]-19-methoxy-15,17,21,23,29,35-hexamethyl-30-(pyrazin-2-ylmethoxy)-11,36-dioxa-4-azatricyclo[30.3.1.0^4,9]hexatriaconta-16,24,26,28-tetraene-2,3,10,14,20-pentone]	Yes	–
–	–	COCCO[C@@H]1CC[C@@H](C[C@@H](C)[C@@H]2CC(=O)[C@H](C)/C=C(\C)[C@@H](O)[C@@H](OC)C(=O)[C@H](C)C[C@H](C)/C=C/C=C/C=C(\C)[C@@H](OCc3cnccn3)C[C@@H]3CC[C@@H](C)[C@@](O)(O3)C(=O)C(=O)N3CCCC[C@H]3C(=O)O2)C[C@H]1OC [I-57, (1R,9S,12S,15R,16E,18R,19R,21R,23S,24E,26E,28E,30S,32S,35R)-1,18-dihydroxy-19-methoxy-12-[(1R)-2-[(1S,3R,4R)-3-methoxy-4-(2-methoxyethoxy)cyclohexyl]-1-methyl-ethyl]-15,17,21,23,29,35-hexamethyl-30-(pyrazin-2-ylmethoxy)-11,36-dioxa-4-azatricyclo[30.3.1.0^4,9]hexatriaconta-16,24,26,28-tetraene-2,3,10,14,20-pentone]	Yes	–
1 to 10	≥ 1000	CO[C@@H]1C[C@H](C[C@@H](C)[C@@H]2CC(=O)[C@H](C)/C=C(\C)[C@@H](O)[C@@H](OC)C(=O)[C@H](C)C[C@H](C)/C=C/C=C/C=C(\C)[C@H](OCCOC3COC3)C[C@@H]3CC[C@@H](C)[C@@](O)(O3)C(=O)C(=O)N3CCCC[C@H]3C(=O)O2)CC[C@H]1OCCCN1CCOCC1 [I-13, (27E,29E,31E,32E,39R,40S,41R,42R,44S,46S,48R,49S,51R,52R,61R)-51,61-dihydroxy-52-methoxy-49-[(1R)-2-[(1S,3R,4R)-3-methoxy-4-(3-morpholinopropoxy)cyclohexyl]-1-methyl-ethyl]-39,40,41,42,53,54-hexamethyl-48-[2-(oxetan-3-yloxy)ethoxy]-73,74-dioxa-63-azatricyclohexatriaconta-27,29,31(53),32(54)-tetraene-55,56,57,58,59-pentone]	–	Yes
